In US20090042883A1, “ANTITUMOR AGENT” (KYOWA HAKKOKOGYO CO., priority 2005, published 2009):

Legend:
[1] = system: human chronic myelocytic leukemia K562 cells; assay: Antitumor effect in vivo, mouse model transplanted with human chronic myelocytic leukemia K562 cells; conditions: K562 subcutaneous transplant in Fox C.B-17/Icr-scid mice; 100 mg/kg intravenously twice a day on days 0, 1, 2, 7, 8, 9; tumor volume to day 22
Description: Using an experimental system in which human chronic myelocytic leukemia K562 cells were transplanted into immunodeficient mice as disease models of hematopoietic tumor, the antitumor effect in vivo of Compound 33 was examined.
One day before the transplantation of cancer cells, an anti-asialo GM1 antibody was intraabdominally administered to Fox C.B-17/Icr-scidJc1 mice (CLEA Japan) in an amount of 0.3 mg per mouse. K562 cells were cultured and grown in RPMI1640 medium containing 10% fetal calf serum (FCS) in a 5% carbon dioxide incubator at 37° C., and the cultured cells (1×10^7 cells/mouse) were subcutaneously, ventrally transplanted into the mice. Ten days after the transplantation, the major axis and minor axis of the tumors subcutaneously grown were measured with slide calipers, and the tumor volume was determined according to the following formula: […]
(§1) At the same time, the body weight of each mouse was measured, and the mice were divided into two groups, i.e., a group to be administered with drugs and a group not to be administered with drugs, such that each group consists of five mice with various weights and tumor volumes. This day was defined as day 0 of the administration test. Drug administration was started in the following manner. […]

[2] = system: human lung cancer NCI-H596 cells; assay: Antitumor effect in vivo, mouse model transplanted with human lung cancer NCI-H596 cells; conditions: NCI-H596 subcutaneous transplant in BALB/cAJc1-nu mice; 50 mg/kg intravenously twice a day on days 0 to 4; tumor volume to day 17
Description: Using an experimental system in which human lung cancer NCI-H596 cells were transplanted into immunodeficient mice as disease models of solid tumor, the antitumor effect in vivo of Compound 33 was examined.
NCI-H596 cells were cultured and grown in RPMI1640 medium containing 10% fetal calf serum (FCS) in a 5% carbon dioxide incubator at 37° C., and the cultured cells (1×10^7 cells/mouse) were subcutaneously, ventrally transplanted into BALB/cAJc1-nu mice (CLEA Japan). From the mice in which tumors were formed, the tumors were removed. The tumor tissues were cut into small pieces of about 8 mm^3, which were subcutaneously, ventrally transplanted, using a trocar needle, into BALB/cAJc1-nu mice (CLEA Japan) to be used for experiment. Seventeen days after the transplantation, the major axis and minor axis of the tumors subcutaneously grown were measured with slide calipers, and the tumor volume was determined according to the following formula: […]
as §1

[3] = system: human prostate cancer 22Rv1 cells; assay: Antitumor effect in vivo, mouse model transplanted with human prostate cancer 22Rv1 cells; conditions: 22Rv1 subcutaneous transplant in BALB/cAJc1-nu mice; 100 mg/kg intravenously twice a day on days 0 to 4; tumor volume to day 17
Description: Using an experimental system in which human prostate cancer 22Rv1 cells were transplanted into immunodeficient mice as disease models of solid tumor, the antitumor effect in vivo of Compound 33 was examined.
22Rv1 cells were cultured and grown in RPMI1640 medium containing 10% fetal calf serum (FCS) in a 5% carbon dioxide incubator at 37° C., and the cultured cells (1×10^7 cells/mouse) were subcutaneously, ventrally transplanted into BALB/cAJc1-nu mice (CLEA Japan). Seventeen days after the transplantation, the major axis and minor axis of the tumors subcutaneously grown were measured with slide calipers, and the tumor volume was determined according to the following formula: […]
as §1

CCc1c(O)cc(O)c(C(=O)c2ccc(OC)cc2)c1CC(=O)N(CCO)CCOC [Compound 33]
apparent suppression of tumor growth: antitumor effect in vivo (tumor volume, FIG. 1) [1] | antitumor effect in vivo (tumor volume, FIG. 2) [2] | antitumor effect in vivo (tumor volume, FIG. 3) [3]
